How the values were obtained:
Type in all cases: in vivo, human
[1] = Blood pressure, metabolic syndrome subjects; details: metabolic syndrome subjects (Example 4), chromium products 400 mcg
Text: (§1) Patients included in the study, were of either gender, aged 30-68 years, having endothelial dysfunction defined as ≤6% change in reflection index (RI) on post salbutamol challenge test and central obesity as defined by The International Diabetes Federation guidelines, dated 2006, and any two of the following conditions:
(§2) After screening, all the eligible subjects were randomized to receive either one of the three treatments orally for duration of 12 weeks: group 1—one capsule of Crominex®3+ 200 mcg once daily; group 2—one capsule 400 mcg once daily; group 3—one capsule of Placebo once daily.
(§3) Subjects were reviewed for follow up at 4 weeks, 8 and 12 weeks of therapy. At each visit they were evaluated for efficacy and safety. Pharmacodynamic evaluation for endothelial function was conducted at baseline and end of treatment. Blood samples were collected for evaluation of biomarkers before and at end of treatment. Safety lab investigations for hematological, hepatic and renal biochemical parameters were conducted before and at the end of the study and also as and when required (in case of any adverse drug reaction (ADR)). Subjects were enquired for the presence of ADR and the same was recorded in the case report form. Compliance to therapy was assessed by pill count method.
(§4) When the results with Crominex® 3+ in the above two examples were highly significant, especially with the 400 mcg once daily dose in type 2 diabetics, two more clinical studies (EXAMPLES 3 & 4) were conducted at the same institute, following the same methodology as described earlier, on the individual components of Crominex® 3+, i.e., chromium chloride and Phyllanthus emblica+Shilajit, and other chromium supplements available in the market, i.e., chromium picolinate, chromium polynicotinate and chromium dinicocysteinate, in type 2 diabetics as well as in subjects with metabolic syndrome symptoms.

fasting plasma glucose [2] = assay: Fasting plasma glucose, type 2 diabetics
Experimental: as §4

[3] = tested on: high sensitivity C-reactive protein (hsCRP); assay: hsCRP by ELISA, type 2 diabetics
Experimental: (§5) The present clinical study is a prospective, randomized, double blind, placebo-controlled study. Patients of either sex, aged 30-65 years, fasting plasma glucose of 110-126 mg/dl, a glycosylated hemoglobin (HbA1c) between 6.5% and 8% and taking stable dose of anti-diabetic treatment (metformin 1500-2000 mg/day) for the past 8 weeks prior to the screening visit; and having endothelial dysfunction defined as ≤6% change in reflection index (RI) on post salbutamol challenge test were included in the study. Patients with severe uncontrolled hyperglyceamia, uncontrolled hypertension, cardiac arrhythmia, impaired hepatic or renal function, history of malignancy or stroke, smoking, chronic alcoholism, any other serious disease requiring active treatment and treatment with any other herbal supplements, were excluded from the study.
(§6) After screening, all the eligible subjects were randomized to receive either one of the three treatments orally for duration of 12 weeks—Group1—one capsule of Crominex®3+, 200 mcg once daily, Group 2—one capsule Crominex®3+, 400 mcg once daily; Group 3—one capsule of placebo once daily.
as §3, with “Subjects were required for follow” for “Subjects were reviewed for follow”, “up at 4, 8 and” for “up at 4 weeks, 8 and”, “conducted at every visit. Blood samples” for “conducted at baseline and end of treatment. Blood samples”, “and at the end of” for “and at end of”, “drug reaction (ADR). Subjects were” for “drug reaction (ADR)). Subjects were”
Nitric oxide, MDA, Glutathione and levels were estimated spectrophotometrically as follows. Malondialdehyde (MDA) levels were determined as described in Vidyasagar, et al., “Oxidative stress and antioxidant status in acute organophosphorous insecticide poisoning,” Indian J. Pharmacol. (April 2004) 36(2): 76-79. Glutathione levels were determined as described in G. L. Ellman, Arch. Biochem. Biophys. (1959) 82: 70-77 (original determination). Nitric oxide levels were estimated spectrophotometrically as described in Miranda, et al., “A Rapid, Simple Spectrophotometric Method for Simultaneous Detection of Nitrate and Nitrite,” NITRIC OXIDE: Biology and Chemistry (2001) Vol. 5, No. 1, pp. 62-71. hsCRP (high sensitivity C-reactive protein) was determined by ELISA method.
as §4

fasting plasma glucose [4] = assay: Fasting plasma glucose, metabolic syndrome subjects
Text: as §1, §2, §3, §4

[5] = tested on: Glycosylated Hemoglobin A1c (HbA1c); assay: Glycosylated hemoglobin A1c, type 2 diabetics
Experimental: as §5, §6
as §3, with “Subjects were required for follow” for “Subjects were reviewed for follow”, “up at 4, 8 and” for “up at 4 weeks, 8 and”, “conducted at every visit. Blood samples” for “conducted at baseline and end of treatment. Blood samples”, “and at the end of” for “and at end of”, “drug reaction (ADR). Subjects were” for “drug reaction (ADR)). Subjects were”
(§7) All the subjects had undergone complete physical examination, safety lab evaluations at baseline and at the end of the treatment. Samples were collected after an overnight fast of 12 hrs after the last dose of medication for determination of hemoglobin, glycosylated hemoglobin (HbA1c), blood urea, serum creatinine, liver function, lipid profile (Total cholesterol, High density lipoprotein cholesterol (HDL-C), low density lipoprotein cholesterol (LDL-C) using appropriate standard techniques.
as §4

lipid profile [6] = assay: Lipid profile (TC, HDL-C, LDL-C, TG, VLDL-C), type 2 diabetics
Experimental: as §5, §6
as §3, with “Subjects were required for follow” for “Subjects were reviewed for follow”, “up at 4, 8 and” for “up at 4 weeks, 8 and”, “conducted at every visit. Blood samples” for “conducted at baseline and end of treatment. Blood samples”, “and at the end of” for “and at end of”, “drug reaction (ADR). Subjects were” for “drug reaction (ADR)). Subjects were”
as §7, §4

lipid profile [7] = assay: Lipid profile (TC, HDL-C, LDL-C, TG), metabolic syndrome subjects
Text: as §7
Patients included in the study, were of either gender, aged 30-68 years, having endothelial dysfunction defined as ≤6% change in reflection index (RI) on post salbutamol challenge test and central obesity as defined by The International Diabetes Federation guidelines, dated 2006, and any two of the following conditions: […]
as §3
Assessment of endothelial function, biomarkers, safety parameters and primary and secondary efficacy parameters and data analysis were performed as described under the study with type 2 diabetic subjects in Example 1.
as §4

[8] = type 2 diabetics (Example 3), chromium products 400 mcg, post-treatment, 12 weeks
[9] = type 2 diabetics (Example 3), chromium products 400 mcg, pre-treatment
[10] = metabolic syndrome subjects (Example 4), chromium products 400 mcg, after 12 weeks of treatment
[11] = metabolic syndrome subjects (Example 4), chromium products 400 mcg, pre-treatment
[12] = type 2 diabetics (Example 3), chromium products 400 mcg, 12 weeks of treatment

## O.O.O.O.O.O.[Cl][Cr]([Cl])[Cl] [Chromium chloride, Chromium chloride (CrCl3.6H2O)]
[1]; after 12 weeks of treatment
  Diastolic blood pressure Post Tt: 79.8 ± 2.66 NS mmHg
  Systolic blood pressure Post Tt: 122.9 ± 3.42 NS mmHg
[1]; pre-treatment
  Diastolic blood pressure Pre Tt: 80.6 ± 2.67 mmHg
  Systolic blood pressure Pre Tt: 124.7 ± 3.35 mmHg
Fasting plasma glucose [2]; DM, 400 mcg
  Fasting Glucose: 0.87%
Fasting plasma glucose [2]; [8]
  Fasting Plasma Glucose Post Tt: 134.21 ± 9.32 NS mg/dL
Fasting plasma glucose [2]; [9]
  Fasting Plasma Glucose Pre Tt: 133.05 ± 7.95 mg/dL
[3]; DM, 400 mcg
  hsCRP: −9.92%
[3]; type 2 diabetics (Example 3), chromium products 400 mcg, 12 week treatment
  Mean percentage change in hsCRP: −9.92 ± 3.86 #$NS %
[3]; [8]
  hsCRP Post Tt: 2.46 ± 0.55 mg/L
[3]; [9]
  hsCRP Pre Tt: 2.72 ± 0.53 mg/L
Fasting plasma glucose [4]; MS, 400 mcg
  Fasting Glucose: −2.7%
Fasting plasma glucose [4]; [10]
  Fasting Plasma Glucose Post Tt: 101.32 ± 16.51 NS
Fasting plasma glucose [4]; [11]
  Fasting Plasma Glucose Pre Tt: 104.16 ± 14.92
[5]; DM, 400 mcg, absolute change
  HbA1c (Abs.): −0.02
[5]; type 2 diabetics (Example 3), chromium products 400 mcg, after 12 weeks treatment
  Absolute change in HbA1c: −0.02 ± 0.10 #NS %
[5]; [8]
  HbA1c Post Tt: 6.89 ± 0.16 NS %
[5]; [9]
  HbA1c Pre Tt: 6.91 ± 0.16%
Lipid profile [6]; DM, 400 mcg
  HDL: 2.79%
  LDL: −1.3%
  TC: −0.28%
  TG: −0.49%
Lipid profile [6]; [12]
  Mean percentage change in HDL-C: 2.79 ± 2.88 @NS %
  Mean percentage change in LDL-C: −1.30 ± 1.42 NS %
  Mean percentage change in Total Cholesterol: −0.28 ± 0.81 #NS %
  Mean percentage change in Triglycerides: −0.49 ± 0.93 NS %
Lipid profile [6]; [8]
  HDL-C Post Tt: 39.95 ± 2.72 mg/dL
  LDL-C Post Tt: 108.93 ± 10.40 mg/dL
  Total Cholesterol Post Tt: 184.89 ± 9.67 NS mg/dl
  Triglycerides Post Tt: 180.11 ± 7.80 $ mg/dl
Lipid profile [6]; [9]
  HDL-C Pre Tt: 38.89 ± 2.85 mg/dL
  LDL-C Pre Tt: 110.33 ± 10.74 mg/dL
  Total Cholesterol Pre Tt: 185.42 ± 9.68 mg/dL
  Triglycerides Pre Tt: 181.00 ± 7.84 mg/dL
Lipid profile [7]; MS, 400 mcg
  HDL: −1.08%
  LDL: 0.79%
  TC: 0.49%
  TG: 0.92%
Lipid profile [7]; [10]
  HDL-C Post Tt: 36.79 ± 5.14 NS mg/dl
  LDL-C Post Tt: 117.37 ± 9.13 NS mg/dl
  Mean percentage change in HDL-C: −1.08 ± 3.45%
  Mean percentage change in Total Cholesterol: 0.49 ± 1.30%
  Mean percentage change in Triglycerides: 0.92 ± 1.43%
  Total Cholesterol Post Tt: 189.21 ± 10.80 NS mg/dl
  Triglycerides Post Tt: 175.26 ± 9.70 mg/dL
Lipid profile [7]; [11]
  HDL-C Pre Tt: 37.21 ± 5.16 mg/dL
  LDL-C Pre Tt: 116.42 ± 9.75 mg/dL
  Total Cholesterol Pre Tt: 188.37 ± 11.78 mg/dL
  Triglycerides Pre Tt: 173.68 ± 9.70 mg/dL
